Reference: patent US11440910B2, “Pesticidally active heterocyclic derivatives with sulfur containing substituents” (SYNGENTA PARTICIPATIONS AG, priority 2017, dated 2022)
Blank lines part the entries; values can stand above or below the compound they belong to.

Columns and labels:
[1] = tested on: Spodoptera littoralis (Egyptian cotton leaf worm); assay: Example B1: Spodoptera littoralis, cotton leaf discs sprayed; assay type: in vivo; details: foliar, 72 h, application rate 200 ppm, L1 larvae, 3 days after infestation, read-out: control (at least one of mortality, anti-feedant effect, growth inhibition)
Method: Example B1: Spodoptera Littoralis (Egyptian Cotton Leaf Worm)
Cotton leaf discs were placed onto agar in 24-well microtiter plates and sprayed with aqueous test solutions prepared from 10′000 ppm DMSO stock solutions. After drying the leaf discs were infested with five L1 larvae. The samples were assessed for mortality, anti-feeding effect, and growth inhibition in comparison to untreated samples 3 days after infestation. Control of Spodoptera littoralis by a test sample is given when at least one of the categories mortality, anti-feedant effect, and growth inhibition is higher than the untreated sample.

[2] = tested on: Spodoptera littoralis (Egyptian cotton leaf worm); assay: Example B2: Spodoptera littoralis, systemic test via lettuce roots in agar; assay type: in vivo; details: 144 h, test rate 12.5 ppm, 6 days after infestation, read-out: effect in at least one of the three categories (mortality, anti-feeding, or growth inhibition)
Source text: Example B2: Spodoptera Littoralis (Egyptian Cotton Leaf Worm)
Test compounds were applied by pipette from 10′000 ppm DMSO stock solutions into 24-well plates and mixed with agar. Lettuce seeds were placed onto the agar and the multi well plate was closed by another plate which contained also agar. After 7 days the compound was absorbed by the roots and the lettuce grew into the lid plate. The lettuce leaves were then cut off into the lid plate. Spodoptera eggs were pipetted through a plastic stencil onto a humid gel blotting paper and the lid plate was closed with it. The samples were assessed for mortality, anti-feedant effect and growth inhibition in comparison to untreated samples 6 days after infestation.

[3] = tested on: Plutella xylostella (Diamond back moth); assay: Example B3: Plutella xylostella, artificial diet; assay type: in vivo; details: 120 h, application rate 200 ppm, L2 larvae, 5 days after infestation, read-out: effect in at least one of the two categories (mortality or growth inhibition)
Method: Example B3: Plutella Xylostella (Diamond Back Moth)
(§1) 24-well microtiter plates with artificial diet were treated with aqueous test solutions prepared from 10′000 ppm DMSO stock solutions by pipetting. After drying, the plates were infested with L2 larvae (10 to 15 per well). The samples were assessed for mortality and growth inhibition in comparison to untreated samples 5 days after infestation.

[4] = tested on: Diabrotica balteata (Corn root worm); assay: Example B4: Diabrotica balteata, maize sprouts sprayed; assay type: in vivo; details: 96 h, application rate 200 ppm, L2 larvae, 4 days after infestation, read-out: effect in at least one of the two categories (mortality or growth inhibition)
Method: Example B4: Diabrotica Balteata (Corn Root Worm)
as §1, with “Maize sprouts placed onto an agar layer in 24-well” for “24-well”, “plates” for “plates with artificial diet”, “spraying.” for “pipetting.”, “(6” for “(10”, “10” for “15”, “4” for “5”

[5] = tested on: Myzus persicae (Green peach aphid); assay: Example B5: Myzus persicae, sunflower leaf discs sprayed; assay type: in vivo; details: foliar, 144 h, application rate 200 ppm, mixed ages, 6 days after infestation
Method: Example B5: Myzus Persicae (Green Peach Aphid)
Sunflower leaf discs were placed onto agar in a 24-well microtiter plate and sprayed with aqueous test solutions prepared from 10′000 ppm DMSO stock solutions. After drying, the leaf discs were infested with an aphid population of mixed ages. The samples were assessed for mortality 6 days after infestation.

[6] = tested on: Myzus persicae (Green peach aphid); assay: Example B6: Myzus persicae, roots of pea seedlings in test solution; assay type: in vivo; details: 144 h, test rate 24 ppm, mixed ages, 6 days after placing seedlings into test solutions
Method: Example B6: Myzus Persicae (Green Peach Aphid)
Roots of pea seedlings infested with an aphid population of mixed ages were placed directly into aqueous test solutions prepared from 10′000 DMSO stock solutions. The samples were assessed for mortality 6 days after placing seedlings into test solutions.

[7] = tested on: Bemisia tabaci (Cotton white fly); assay: Example B7: Bemisia tabaci, cotton leaf discs sprayed; assay type: in vivo; details: foliar, 144 h, application rate 200 ppm, adult white flies, 6 days after incubation
Method: Example B7: Bemisia Tabaci (Cotton White Fly)
Cotton leaf discs were placed on agar in 24-well microtiter plates and sprayed with aqueous test solutions prepared from 10′000 ppm DMSO stock solutions. After drying the leaf discs were infested with adult white flies. The samples were checked for mortality 6 days after incubation.

[8] = tested on: Euschistus heros (Neotropical brown stink bug); assay: Example B8: Euschistus heros, soybean leaves sprayed; assay type: in vivo; details: 120 h, application rate 200 ppm, N2 nymphs, 5 days after infestation, read-out: effect in at least one of the two categories (mortality or growth inhibition)
Method: Example B8: Euschistus Heros (Neotropical Brown Stink Bug)
Soybean leaves on agar in 24-well microtiter plates were sprayed with aqueous test solutions prepared from 10′000 ppm DMSO stock solutions. After drying the leaves were infested with N2 nymphs. The samples were assessed for mortality and growth inhibition in comparison to untreated samples 5 days after infestation.

Euschistus heros = assay: Example B13: comparison against Euschistus heros, soybean plants sprayed; assay type: in vivo; details: 120 h, Concentration 3 ppm, N2 nymphs on 2 week old soybean plants, 5 days after treatment
Method: Activity of compound P17 according to the present invention and of compound P15 from WO2016/026848 against Euschistus heros is summarized in Table B13.
2 week old soybean plants were sprayed with diluted aqueous test solutions. Afterwards plants were infested with 10 stink bug nymphs (N2). Soybean seeds were added as additional food source to the test system. 5 days after treatment the samples were assessed for mortality.

melting point: 222 to 223 °C
SMILES: CCS(=O)(=O)c1cc(C(C)(C#N)C#N)cnc1-c1nc2cc(C(F)(F)F)ncc2n1C [Compound P1, 2-[5-ethylsulfonyl-6-[3-methyl-6-(trifluoromethyl)imidazo[4,5-c]pyridin-2-yl]-3-pyridyl]-2-methyl-propanedinitrile]

SMILES: CCS(=O)(=O)c1cc(C(C)(C)C#N)cnc1-c1nc2cc(C(F)(F)F)nnc2n1C [Compound P2, 2-[5-ethylsulfonyl-6-[7-methyl-3-(trifluoromethyl)imidazo[4,5-c]pyridazin-6-yl]-3-pyridyl]-2-methyl-propanenitrile]
percent control (mortality, anti-feedant effect or growth inhibition) at 200 ppm [1]: ≥ 80% | percent effect (mortality, anti-feeding or growth inhibition) at 12.5 ppm [2]: ≥ 80% | percent effect (mortality or growth inhibition) at 200 ppm [3]: ≥ 80% | percent effect (mortality or growth inhibition) at 200 ppm [4]: ≥ 80% | mortality at 200 ppm [5]: ≥ 80% | mortality at 24 ppm [6]: ≥ 80% | mortality at 200 ppm [7]: ≥ 80% | percent effect (mortality or growth inhibition) at 200 ppm [8]: ≥ 80%

SMILES: CCS(=O)(=O)c1cc(C(C)(C)C#N)cnc1-c1nc2cc(C(F)(F)F)ncc2n1C [Compound P5, 2-[5-ethylsulfonyl-6-[3-methyl-6-(trifluoromethyl)imidazo[4,5-c]pyridin-2-yl]-3-pyridyl]-2-methyl-propanenitrile]
percent control (mortality, anti-feedant effect or growth inhibition) at 200 ppm [1]: ≥ 80% | percent effect (mortality or growth inhibition) at 200 ppm [3]: ≥ 80% | percent effect (mortality or growth inhibition) at 200 ppm [4]: ≥ 80% | mortality at 200 ppm [5]: ≥ 80% | mortality at 24 ppm [6]: ≥ 80% | mortality at 200 ppm [7]: ≥ 80% | percent effect (mortality or growth inhibition) at 200 ppm [8]: ≥ 80%

SMILES: CCS(=O)(=O)c1cc(C(C)(C)C#N)ccc1-c1nc2cc(C(F)(F)F)nnc2n1C [Compound P12, 2-[3-ethylsulfonyl-4-[7-methyl-3-(trifluoromethyl)imidazo[4,5-c]pyridazin-6-yl]phenyl]-2-methyl-propanenitrile]
percent effect (mortality or growth inhibition) at 200 ppm [3]: ≥ 80% | percent effect (mortality or growth inhibition) at 200 ppm [4]: ≥ 80% | mortality at 200 ppm [5]: ≥ 80% | mortality at 24 ppm [6]: ≥ 80% | mortality at 200 ppm [7]: ≥ 80% | percent effect (mortality or growth inhibition) at 200 ppm [8]: ≥ 80%

SMILES: CCS(=O)(=O)c1cc(C(C)(C)C#N)ccc1-c1nc2cc(C(F)(F)F)ncc2n1C [Compound P17, 2-[3-ethylsulfonyl-4-[3-methyl-6-(trifluoromethyl)imidazo[4,5-c]pyridin-2-yl]phenyl]-2-methyl-propanenitrile]
percent effect (mortality or growth inhibition) at 200 ppm [3]: ≥ 80% | percent effect (mortality or growth inhibition) at 200 ppm [4]: ≥ 80% | mortality at 200 ppm [5]: ≥ 80% | mortality at 24 ppm [6]: ≥ 80% | mortality at 200 ppm [7]: ≥ 80% | percent effect (mortality or growth inhibition) at 200 ppm [8]: ≥ 80% | mortality at 3 ppm (Euschistus heros): 95%

melting point: 202 to 204 °C
SMILES: CCS(=O)(=O)c1cc(C(C)(F)C#N)cnc1-c1nc2cc(C(F)(F)F)ncc2n1C (stereo not shown) [Compound P18, 2-[5-ethylsulfonyl-6-[3-methyl-6-(trifluoromethyl)imidazo[4,5-c]pyridin-2-yl]-3-pyridyl]-2-fluoro-propanenitrile]

melting point: 212 to 213 °C
SMILES: CCS(=O)(=O)c1cc(C(C)(C)C#N)cnc1-c1nc2cc(C(F)(F)C(F)(F)F)ncc2n1C [Compound P20, 2-[5-ethylsulfonyl-6-[3-methyl-6-(1,1,2,2,2-pentafluoroethyl)imidazo[4,5-c]pyridin-2-yl]-3-pyridyl]-2-methyl-propanenitrile]
